Measured values taken from ChEMBL document CHEMBL1201862, “PubChem BioAssay data set” (2004).
The source made the active and inactive calls.

What was measured:
[1] = biological target: T1, Tyrosine-protein phosphatase non-receptor type 7 (Homo sapiens, UniProt P35236); experiment: redox-active compounds inhibiting HePTP phosphatase – biochemical, fluorescence, mechanism study (AID 2068); format: functional
T1 sequence (P35236 whole entry): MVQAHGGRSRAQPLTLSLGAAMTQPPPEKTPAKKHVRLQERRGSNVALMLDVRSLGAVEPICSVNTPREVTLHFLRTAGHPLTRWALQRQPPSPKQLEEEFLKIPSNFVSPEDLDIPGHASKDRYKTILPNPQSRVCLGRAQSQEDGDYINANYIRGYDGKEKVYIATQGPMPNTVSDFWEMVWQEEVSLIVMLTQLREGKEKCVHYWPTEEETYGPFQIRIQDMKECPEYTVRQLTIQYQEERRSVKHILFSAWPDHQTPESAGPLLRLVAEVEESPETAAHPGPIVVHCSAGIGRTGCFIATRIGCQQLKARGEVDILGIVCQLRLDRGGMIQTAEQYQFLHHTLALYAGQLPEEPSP

[2] = biological target: T2, Tyrosine-protein phosphatase non-receptor type 22 (Homo sapiens, UniProt Q9Y2R2); format: functional
T2 sequence (Q9Y2R2 whole entry): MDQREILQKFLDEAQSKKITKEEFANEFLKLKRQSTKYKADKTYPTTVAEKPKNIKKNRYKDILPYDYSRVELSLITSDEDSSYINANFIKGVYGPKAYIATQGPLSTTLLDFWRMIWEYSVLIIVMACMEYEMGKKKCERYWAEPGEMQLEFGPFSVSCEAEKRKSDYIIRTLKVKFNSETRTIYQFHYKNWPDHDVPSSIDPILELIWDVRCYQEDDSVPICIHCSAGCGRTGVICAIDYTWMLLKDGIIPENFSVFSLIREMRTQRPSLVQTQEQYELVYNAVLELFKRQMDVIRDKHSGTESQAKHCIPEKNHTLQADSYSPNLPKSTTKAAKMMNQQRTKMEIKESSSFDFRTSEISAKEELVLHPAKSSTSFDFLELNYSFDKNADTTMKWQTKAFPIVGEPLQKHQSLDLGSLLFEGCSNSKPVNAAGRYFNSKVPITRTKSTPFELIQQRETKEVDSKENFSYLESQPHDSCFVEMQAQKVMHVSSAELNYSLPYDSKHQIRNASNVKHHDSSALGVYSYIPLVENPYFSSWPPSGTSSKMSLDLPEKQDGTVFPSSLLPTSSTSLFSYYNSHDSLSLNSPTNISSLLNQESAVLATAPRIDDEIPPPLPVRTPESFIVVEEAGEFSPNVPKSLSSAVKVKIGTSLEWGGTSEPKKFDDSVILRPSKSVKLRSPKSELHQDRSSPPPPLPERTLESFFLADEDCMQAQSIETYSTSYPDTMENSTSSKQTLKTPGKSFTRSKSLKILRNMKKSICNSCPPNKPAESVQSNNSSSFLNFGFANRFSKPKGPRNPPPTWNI

[3] = biological target: T2, Tyrosine-protein phosphatase non-receptor type 22; format: functional; remark: listed apart in the source
[4] = biological target: T1, Tyrosine-protein phosphatase non-receptor type 7; format: functional
[5] = biological target: DNA dC->dU-editing enzyme APOBEC-3G (Homo sapiens, UniProt Q9HC16); format: functional;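 also: Dose-response counterscreen measuring inhibition of APOBEC3G DNA deaminase activity, run while confirming APOBEC3A inhibitors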
[6] = biological target: DNA dC->dU-editing enzyme APOBEC-3A (Homo sapiens, UniProt P31941); experiment: Dose Response confirmation of small molecule APOBEC3A DNA Deaminase Inhibitors via a fluorescence-based single-stranded DNA deaminase assay. [Related pubchem assays (depositor defined):AID493011, AID493024]; format: functional
[7] = Luminescence Cell-Based Dose Response HTS to Identify Inhibitors of 5'UTR Stem-Loop Driven Prion Protein mRNA Translation in H4 Neuroglioblastoma Cells. [Related pubchem assays: 1827 (Project Summary), 1813 (Primary HTS)]; format: functional
[8] = system: Streptococcus sp. 'group A'; experiment: Streptococcus pyogenes SK(-)GAS viability under kanamycin – luminescence, BacTiterGlo, confirmation, counter-screen for streptokinase expression inhibitor project, dose response (AID 1900); format: functional, organism-based
[9] = A Cell Based Secondary Assay To Explore Cytotoxicity of Compounds that Sensitize Mycobacterium Tuberculosis to Beta-Lactam Antibiotics.; format: functional
Streptococcus = experiment: GAS UMAA2166 growth inhibition – luminescence, BacTiterGlo, counter-screen for streptokinase expression inhibitor project, dose response (AID 1915); format: functional, organism-based;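 also: potency for reduction of bacterial viability or growth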
Hexokinase-1 = biological target: T3, Hexokinase-1 (Homo sapiens, UniProt P19367); experiment: HK1 enzyme activation by HKDC1 hits – biochemical, selectivity assay for HKDC1 activator project, dose response (AID 504762); format: functional
T3 sequence (P19367 whole entry): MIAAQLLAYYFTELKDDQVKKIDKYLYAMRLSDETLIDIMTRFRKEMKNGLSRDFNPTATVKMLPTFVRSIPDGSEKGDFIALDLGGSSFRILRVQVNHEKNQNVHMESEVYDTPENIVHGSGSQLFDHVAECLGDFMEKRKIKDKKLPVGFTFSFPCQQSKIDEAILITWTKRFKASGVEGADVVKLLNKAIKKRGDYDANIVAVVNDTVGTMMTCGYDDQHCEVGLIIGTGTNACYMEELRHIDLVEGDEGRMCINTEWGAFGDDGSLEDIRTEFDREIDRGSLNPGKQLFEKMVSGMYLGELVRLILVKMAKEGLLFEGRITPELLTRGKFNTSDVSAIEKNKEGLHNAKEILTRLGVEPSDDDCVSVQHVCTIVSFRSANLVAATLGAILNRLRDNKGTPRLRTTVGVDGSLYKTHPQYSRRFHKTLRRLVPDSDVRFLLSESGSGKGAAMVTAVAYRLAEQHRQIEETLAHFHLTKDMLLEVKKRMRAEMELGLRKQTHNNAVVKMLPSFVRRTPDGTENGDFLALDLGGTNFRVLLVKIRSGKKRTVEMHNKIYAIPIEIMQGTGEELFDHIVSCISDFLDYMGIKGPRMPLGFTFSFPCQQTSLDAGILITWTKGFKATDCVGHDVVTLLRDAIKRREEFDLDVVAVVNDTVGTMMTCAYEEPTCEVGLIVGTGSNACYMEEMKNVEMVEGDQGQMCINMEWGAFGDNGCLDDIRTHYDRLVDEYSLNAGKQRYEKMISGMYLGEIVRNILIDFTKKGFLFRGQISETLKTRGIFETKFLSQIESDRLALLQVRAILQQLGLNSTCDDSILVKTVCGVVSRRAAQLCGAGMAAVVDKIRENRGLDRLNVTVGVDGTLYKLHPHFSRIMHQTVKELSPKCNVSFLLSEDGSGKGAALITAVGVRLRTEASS

[10] = luciferase reporter signal suppression in cells – H4 neuroglioma cells, luminescence, dose response (AID 1990); format: functional, cell-based
[11] = alpha-synuclein stem-loop luciferase translation blockers – H4 neuroglioma cells, luminescence, confirmation (AID 1988); format: functional, cell-based
Hexokinase HKDC1 = biological target: T4, Hexokinase HKDC1 (Homo sapiens, UniProt Q2TB90); experiment: activation of HKDC1 glucose phosphorylation – biochemical, W721R variant, dose response (AID 504730); format: functional
T4 sequence (Q2TB90 whole entry): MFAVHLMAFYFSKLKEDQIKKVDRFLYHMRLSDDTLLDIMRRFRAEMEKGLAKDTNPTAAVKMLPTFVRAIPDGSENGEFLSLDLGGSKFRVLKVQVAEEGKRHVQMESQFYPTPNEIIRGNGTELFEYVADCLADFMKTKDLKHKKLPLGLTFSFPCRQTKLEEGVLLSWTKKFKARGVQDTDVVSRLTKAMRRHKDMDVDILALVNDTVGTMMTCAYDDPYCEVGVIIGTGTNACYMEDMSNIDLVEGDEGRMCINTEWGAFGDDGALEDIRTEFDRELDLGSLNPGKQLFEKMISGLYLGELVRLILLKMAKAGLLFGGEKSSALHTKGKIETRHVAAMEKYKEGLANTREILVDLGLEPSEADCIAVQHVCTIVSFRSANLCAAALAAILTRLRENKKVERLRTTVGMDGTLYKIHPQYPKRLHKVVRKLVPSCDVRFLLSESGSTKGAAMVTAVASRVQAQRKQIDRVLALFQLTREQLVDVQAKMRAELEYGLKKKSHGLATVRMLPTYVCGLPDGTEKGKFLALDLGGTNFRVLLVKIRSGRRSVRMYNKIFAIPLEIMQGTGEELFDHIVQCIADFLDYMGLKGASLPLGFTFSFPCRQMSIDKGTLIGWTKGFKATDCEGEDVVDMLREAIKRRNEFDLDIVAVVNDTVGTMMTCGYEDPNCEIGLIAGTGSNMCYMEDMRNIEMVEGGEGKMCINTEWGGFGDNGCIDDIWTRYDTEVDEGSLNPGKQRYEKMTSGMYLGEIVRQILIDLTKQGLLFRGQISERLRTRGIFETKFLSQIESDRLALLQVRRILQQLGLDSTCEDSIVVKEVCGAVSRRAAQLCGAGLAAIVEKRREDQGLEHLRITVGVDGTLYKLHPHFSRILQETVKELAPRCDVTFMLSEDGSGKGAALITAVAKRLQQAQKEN

Beta-galactosidase = Beta-galactosidase (Escherichia coli, UniProt Q8VNN2); experiment: PubChem AID 485352; format: functional
[12] = biological target: T5, Type-1 angiotensin II receptor (Homo sapiens, UniProt P30556); experiment: antagonism of angiotensin II type 1 receptor – cell-based, uHTS hits, selectivity assay for APJ receptor antagonist project, dose response (AID 463214); format: functional;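 also: antagonist potency against angiotensin II stimulated AT1 response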
T5 sequence (P30556 whole entry): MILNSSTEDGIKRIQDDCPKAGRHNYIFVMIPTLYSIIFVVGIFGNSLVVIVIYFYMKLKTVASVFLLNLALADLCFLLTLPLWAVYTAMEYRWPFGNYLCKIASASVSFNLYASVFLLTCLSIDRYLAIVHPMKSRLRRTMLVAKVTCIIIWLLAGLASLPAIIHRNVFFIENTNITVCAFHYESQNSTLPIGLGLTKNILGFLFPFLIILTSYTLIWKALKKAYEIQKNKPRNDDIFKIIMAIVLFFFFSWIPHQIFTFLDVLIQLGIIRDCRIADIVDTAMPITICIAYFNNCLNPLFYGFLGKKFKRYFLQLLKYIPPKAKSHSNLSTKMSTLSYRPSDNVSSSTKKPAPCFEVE

INS1 = experiment: INS-1E survival protection against cytokine death – cell-based, luminescence, retest, dose response (AID 449756); format: functional; settings: Rattus norvegicus;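 also: cell death triggered by IL-1 beta plus TNF-alpha plus IFN-gamma mixture; protective hits raise ATP signal compared with cytokine alone wells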
[13] = biological target: T6, Heat shock factor protein 1 (Mus musculus, UniProt P38532); experiment: decrease of HSF1-responsive luciferase luminescence – cell-based, NIH3T3, dose retest, confirmation (AID 2382); format: functional;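 also: NIH3T3 fibroblasts with HSF1-driven luciferase reporter stressed by proteasome inhibitor MG132; luminescence from HSF1-driven luciferase expression after 8 hours of MG132 stress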
T6 sequence (P38532 whole entry): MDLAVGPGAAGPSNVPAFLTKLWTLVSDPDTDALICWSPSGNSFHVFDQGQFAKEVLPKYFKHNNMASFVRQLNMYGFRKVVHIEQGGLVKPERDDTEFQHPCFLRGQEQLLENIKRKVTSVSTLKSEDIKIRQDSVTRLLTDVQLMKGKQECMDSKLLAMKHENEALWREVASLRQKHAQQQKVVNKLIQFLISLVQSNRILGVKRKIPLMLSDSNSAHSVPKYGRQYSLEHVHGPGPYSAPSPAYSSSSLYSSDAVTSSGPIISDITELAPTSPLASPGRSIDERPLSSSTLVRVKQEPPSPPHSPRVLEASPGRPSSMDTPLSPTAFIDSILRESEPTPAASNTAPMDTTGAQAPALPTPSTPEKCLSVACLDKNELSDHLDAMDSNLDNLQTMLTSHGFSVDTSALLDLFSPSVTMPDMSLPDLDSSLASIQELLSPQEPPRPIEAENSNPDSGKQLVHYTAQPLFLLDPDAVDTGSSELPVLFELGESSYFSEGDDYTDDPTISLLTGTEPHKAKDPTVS

DNA dC->dU-editing enzyme APOBEC-3G, sequence (Q9HC16 whole entry): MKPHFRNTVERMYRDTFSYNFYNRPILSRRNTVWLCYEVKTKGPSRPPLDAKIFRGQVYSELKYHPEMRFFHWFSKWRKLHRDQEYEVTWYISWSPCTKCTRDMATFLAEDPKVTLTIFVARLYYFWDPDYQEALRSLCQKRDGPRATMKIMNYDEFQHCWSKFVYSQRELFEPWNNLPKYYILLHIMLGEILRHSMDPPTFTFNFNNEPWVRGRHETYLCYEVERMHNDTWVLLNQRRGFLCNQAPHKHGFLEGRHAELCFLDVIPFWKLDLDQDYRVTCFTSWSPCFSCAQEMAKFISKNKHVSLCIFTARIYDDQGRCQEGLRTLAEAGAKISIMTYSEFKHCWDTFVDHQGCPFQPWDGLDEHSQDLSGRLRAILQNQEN
DNA dC->dU-editing enzyme APOBEC-3A, sequence (P31941 whole entry): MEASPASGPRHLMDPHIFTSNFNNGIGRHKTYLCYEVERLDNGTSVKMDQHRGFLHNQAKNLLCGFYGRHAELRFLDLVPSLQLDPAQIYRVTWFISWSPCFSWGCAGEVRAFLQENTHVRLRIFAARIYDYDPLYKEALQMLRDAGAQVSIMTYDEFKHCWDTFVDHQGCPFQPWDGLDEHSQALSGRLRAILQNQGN
Beta-galactosidase, sequence (Q8VNN2 whole entry): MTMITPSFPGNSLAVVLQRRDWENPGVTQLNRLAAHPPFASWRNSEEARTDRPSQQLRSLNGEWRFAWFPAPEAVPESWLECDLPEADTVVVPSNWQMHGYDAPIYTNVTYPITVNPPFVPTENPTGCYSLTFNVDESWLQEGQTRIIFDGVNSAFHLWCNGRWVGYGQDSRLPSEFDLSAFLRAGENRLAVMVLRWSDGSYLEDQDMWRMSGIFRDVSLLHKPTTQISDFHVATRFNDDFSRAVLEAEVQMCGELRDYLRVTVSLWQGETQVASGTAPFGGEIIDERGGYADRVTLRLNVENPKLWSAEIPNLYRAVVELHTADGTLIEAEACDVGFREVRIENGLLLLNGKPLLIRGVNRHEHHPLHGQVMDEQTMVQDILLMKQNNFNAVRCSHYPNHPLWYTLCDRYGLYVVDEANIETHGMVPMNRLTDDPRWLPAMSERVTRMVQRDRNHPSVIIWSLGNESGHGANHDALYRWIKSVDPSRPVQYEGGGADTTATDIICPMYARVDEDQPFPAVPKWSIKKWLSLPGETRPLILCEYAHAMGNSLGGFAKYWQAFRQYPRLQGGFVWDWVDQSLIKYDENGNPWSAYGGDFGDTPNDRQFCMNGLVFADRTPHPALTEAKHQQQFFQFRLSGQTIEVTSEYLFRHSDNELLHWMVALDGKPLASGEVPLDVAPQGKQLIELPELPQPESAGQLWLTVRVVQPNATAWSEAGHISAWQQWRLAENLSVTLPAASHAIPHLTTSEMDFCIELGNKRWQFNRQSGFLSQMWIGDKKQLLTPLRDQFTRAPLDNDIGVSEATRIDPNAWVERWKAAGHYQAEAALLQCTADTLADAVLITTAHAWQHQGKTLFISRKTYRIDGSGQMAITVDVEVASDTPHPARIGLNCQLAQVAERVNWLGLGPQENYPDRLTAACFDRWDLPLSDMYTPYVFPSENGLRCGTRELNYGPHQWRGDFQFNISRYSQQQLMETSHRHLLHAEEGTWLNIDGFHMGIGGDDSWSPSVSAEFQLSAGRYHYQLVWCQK

For O=C(NCc1ccc2c(c1)OCO2)Nc1ccc2nc(-c3ccco3)c(-c3ccco3)nc2c1, the IC50 [1] was 2.15 µM (active).
For Cc1ccc(C(=O)O)cc1NC(=O)c1ccc2c(c1)C(=O)N(c1ccc([N+](=O)[O-])cc1)C2=O, the IC50 [2] was 15 µM (active), the IC50 [3] was 21.6 µM (active) and the IC50 [4] was 10.9 µM (active).
For CCC(CO)(C(=O)OC1C[N+]2(C)CCC1CC2)c1ccccc1 (configuration not stated), the IC50 [5] was 2.09 µM (active) and the IC50 [6] was 2.25 µM (active).
For CCCCN(CCCC)C(=S)N/N=C/c1c(C)nn(-c2ccccc2)c1O, the EC50 [7] was 4.19 µM (active), the EC50 [8] was 0.221 µM (active) and the CC50 [9] was 5.22 µM (active). The EC50 (Streptococcus) was 11.4 µM (active), the EC50 (Hexokinase-1) was > 80 µM (inactive) and the EC50 [10] was 13.3 µM (active). For the same compound, the EC50 [11] was > 120 µM (not active), the EC50 (Hexokinase HKDC1) was 28.7 µM (inactive) and the EC50 (Beta-galactosidase) was > 40 µM (inactive). The IC50 [12] was 13.3 µM (active).
In the case of CCn1c(C)[n+](CC)c2cc(S(=O)(=O)NC)ccc21, the IC50 [5] is reported as 17.5 µM (active) and the IC50 [6] is reported as 6.81 µM (active).
With CCc1ccc(C2=NN=C(Nc3cccc(S(=O)(=O)N(C)C)c3)SC2)cc1 the AC50 (INS1) was 7.54 µM (active), the EC50 [13] was > 195 µM (not active) and the EC50 (Hexokinase-1) was 8.26 µM (active). The EC50 (Hexokinase HKDC1) was 10.3 µM (active).
